Measurements published in the supplement of paper PMC11061612.

Columns and labels:
Assay in all cases: Bliss excess, mean over the matrix (fraction); higher = more synergy
NY (Osteosarcoma) = system: NY (Osteosarcoma)
Outline: (§1)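 After 24 hours at 37°C and 5% CO2 in 1536-well plates, cells in DMEM/F12 or RPMI plus 10% FBS received two-drug dose matrices for 72 hours. Viability came from CellTiter-Glo 2.0 luminescence and was scaled as inhibition, anchored at 0 by vehicle wells and at 1 by blank wells. Combination Emax is taken as the second-highest inhibition in the matrix, and Bliss excess as the observed combination effect less EA + EB − EA·EB, with EA and EB the single-agent effects.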

[1] = system: HCC1954 (Breast Carcinoma)
Outline: as §1

[2] = system: NCI-H64 (Small Cell Lung Carcinoma)
Outline: as §1

GI-ME-N (Neuroblastoma) = system: GI-ME-N (Neuroblastoma)
Outline: as §1

[3] = system: ONS-76 (Other Solid Carcinomas)
Outline: as §1

ARH-77 (Non-Cancerous) = system: ARH-77 (Non-Cancerous)
Outline: as §1

[4] = system: CAL-29 (Bladder Carcinoma)
Outline: as §1

FU97 (Gastric Carcinoma) = system: FU97 (Gastric Carcinoma)
Outline: as §1

A498 (Kidney Carcinoma) = system: A498 (Kidney Carcinoma)
Outline: as §1

[5] = system: PANC-10-05 (Pancreatic Carcinoma)
Outline: as §1

[6] = system: NCI-H1581 (Non-Small Cell Lung Carcinoma)
Outline: as §1

NCI-H2591 (Mesothelioma) = system: NCI-H2591 (Mesothelioma)
Outline: as §1

[7] = system: VCaP (Prostate Carcinoma)
Outline: as §1

IGR-37 (Melanoma) = system: IGR-37 (Melanoma)
Outline: as §1

[8] = system: COR-L311 (Small Cell Lung Carcinoma)
Outline: as §1

[9] = system: TT2609-C02 (Thyroid Gland Carcinoma)
Outline: as §1

8-MG-BA (Glioblastoma) = system: 8-MG-BA (Glioblastoma)
Outline: as §1

[10] = system: MDST8 (Colorectal Carcinoma)
Outline: as §1

CAS-1 (Glioblastoma) = system: CAS-1 (Glioblastoma)
Outline: as §1

PA-1 (Ovarian Carcinoma) = system: PA-1 (Ovarian Carcinoma)
Outline: as §1

SMILES | Bliss excess (NY (Osteosarcoma)) | Bliss excess [1] | Bliss excess [2] | Bliss excess (GI-ME-N (Neuroblastoma)) | Bliss excess [3] | Bliss excess (ARH-77 (Non-Cancerous)) | Bliss excess [4] | Bliss excess (FU97 (Gastric Carcinoma)) | Bliss excess (A498 (Kidney Carcinoma)) | Bliss excess [5] | Bliss excess [6] | Bliss excess (NCI-H2591 (Mesothelioma)) | Bliss excess [7] | Bliss excess (IGR-37 (Melanoma)) | Bliss excess [8] | Bliss excess [9] | Bliss excess (8-MG-BA (Glioblastoma)) | Bliss excess [10] | Bliss excess (CAS-1 (Glioblastoma)) | Bliss excess (PA-1 (Ovarian Carcinoma))
COc1nnc2ccc(N3CCC(c4ccc(OCCN5CCN(C)C(=O)[C@H]5C)cc4)CC3)nn12 [AZD5153] + C=CCn1c(=O)c2cnc(Nc3ccc(N4CCN(C)CC4)cc3)nc2n1-c1cccc(C(C)(C)O)n1 [AZD1775] (first compound max 1 µM, partner max 1 µM) | 0.0119 | -0.0383 | -0.0114 | -0.0231 | -0.0505 | -0.066 | -0.0699 | 0.0072 | 0.0142 | -0.132 | -0.0029 | 0.0145 | -0.0756 | -0.0569 | -0.06 | -0.0508 | -0.0571 | -0.0455 | -0.0825 | -0.043
COc1nnc2ccc(N3CCC(c4ccc(OCCN5CCN(C)C(=O)[C@H]5C)cc4)CC3)nn12 [AZD5153] + CC1(C)CCC(CN2CCN(c3ccc(C(=O)NS(=O)(=O)c4ccc(NCC5CCOCC5)c([N+](=O)[O-])c4)c(Oc4cnc5[nH]ccc5c4)c3)CC2)=C(c2ccc(Cl)cc2)C1 [Venetoclax] (first compound max 1 µM, 7x7, partner max 1 µM) | -0.0722 | -0.0391 | -0.0455 | -0.0955 | -0.0428 | -0.0033 | -0.103 | -0.0452 | -0.0895 | -0.119 | -0.115 | -0.0688 | -0.0486 | -0.0171 | 0.0389 | -0.106 | -0.0116 | -0.0566 | -0.0621 | -0.077
COc1nnc2ccc(N3CCC(c4ccc(OCCN5CCN(C)C(=O)[C@H]5C)cc4)CC3)nn12 [AZD5153] + CCN(CCO)CCCOc1ccc2c(Nc3cc(CC(=O)Nc4cccc(F)c4)[nH]n3)ncnc2c1 [AZD2811] (first compound max 1 µM, 7x7, partner max 1 µM) | -0.0314 | -0.011 | 0.0609 | 0.0022 | -0.0124 | -0.0471 | 0.0084 | -0.0048 | -0.0453 | -0.0713 | -0.143 | -0.0181 | -0.0345 | 0.0031 | -0.0357 | -0.076 | 0.0121 | 0.0761 | -0.0797 | 0.032
COc1nnc2ccc(N3CCC(c4ccc(OCCN5CCN(C)C(=O)[C@H]5C)cc4)CC3)nn12 [AZD5153] + C[C@@H]1COCCN1C2=NC(=NC(=C2)C3(CC3)[S@](=N)(=O)C)C4=C5C=CNC5=NC=C4 [AZD6738] (first compound max 1 µM, 7x7, partner max 10 µM) | -0.0188 | 0.0323 | 0.0357 | 0.0858 | -0.0698 | -0.0293 | 0.0219 | 0.0043 | -0.0563 | -0.0928 | 0.0013 | 0.0634 | -0.0521 | -0.0149 | -0.0501 | 0.0179 | -0.0849 | 0.0544 | 0.0116 | -0.0502
COc1nnc2ccc(N3CCC(c4ccc(OCCN5CCN(C)C(=O)[C@H]5C)cc4)CC3)nn12 [AZD5153] + Cc1c2c(nn1C)CSCc1cc(n(C)n1)CSc1cc(c3ccccc3c1)OCCCc1c(C(=O)O)n(C)c3c-2c(Cl)ccc13 [AZD5991] (first compound max 1 µM, 7x7, partner max 1 µM) | -0.0656 | 0.0771 | -0.0074 | -0.0142 | -0.0081 | -0.04 | -0.0162 | 0.0934 | -0.0226 | -0.0759 | -0.0739 | -0.0657 | -0.0242 | 0.0608 | -0.0225 | -0.0295 | -0.0367 | 0.0069 | -0.0333 | 0.0109
COc1nnc2ccc(N3CCC(c4ccc(OCCN5CCN(C)C(=O)[C@H]5C)cc4)CC3)nn12 [AZD5153] + Cn1cnc2c(F)c(Nc3ccc(Br)cc3Cl)c(C(=O)NOCCO)cc21 [Selumetinib] (first compound max 1 µM, 7x7, partner max 10 µM) | -0.005 | -0.0118 | 0.0021 | -0.0636 | -0.0127 | -0.0251 | 0.0393 | -0.0254 | 0.0016 | -0.0736 | -0.0141 | -0.0065 | -0.059 | 0.0624 | -0.0334 | -0.0074 | -0.007 | 0.0646 | -0.0548 | 0.0002
Cc1c2c(nn1C)CSCc1cc(n(C)n1)CSc1cc(c3ccccc3c1)OCCCc1c(C(=O)O)n(C)c3c-2c(Cl)ccc13 [AZD5991] + C=CCn1c(=O)c2cnc(Nc3ccc(N4CCN(C)CC4)cc3)nc2n1-c1cccc(C(C)(C)O)n1 [AZD1775] (first compound max 1 µM, partner max 1 µM) | -0.0177 | 0.0435 | -0.0187 | 0.0646 | -0.0214 | -0.0418 | 0.0878 | 0.0503 | 0.0231 | -0.0551 | -0.0365 | 0.0396 | -0.011 | -0.0015 | -0.0655 | 0.0087 | -0.0123 | 0.0087 | 0.0452 | -0.0288
Cc1c2c(nn1C)CSCc1cc(n(C)n1)CSc1cc(c3ccccc3c1)OCCCc1c(C(=O)O)n(C)c3c-2c(Cl)ccc13 [AZD5991] + CC1(C)CCC(CN2CCN(c3ccc(C(=O)NS(=O)(=O)c4ccc(NCC5CCOCC5)c([N+](=O)[O-])c4)c(Oc4cnc5[nH]ccc5c4)c3)CC2)=C(c2ccc(Cl)cc2)C1 [Venetoclax] (first compound max 1 µM, 7x7, partner max 1 µM) | 0.0232 | 0.0401 | 0.0308 | -0.0408 | -0.0214 | 0.0087 | 0.0101 | -0.0525 | -0.108 | -0.0506 | -0.0061 | -0.0252 | -0.0351 | -0.0167 | 0.157 | -0.0069 | 0.048 | -0.0359 | -0.0284 | 0.0664
Cc1c2c(nn1C)CSCc1cc(n(C)n1)CSc1cc(c3ccccc3c1)OCCCc1c(C(=O)O)n(C)c3c-2c(Cl)ccc13 [AZD5991] + CN(C)CCCOc1ccc(-c2ccc3ncc4c(c3c2)n(C2CCOCC2)c(=O)n4C)cn1 [AZD0156] (first compound max 1 µM, 7x7, partner max 1 µM) | 0.0299 | 0.0247 | -0.0708 | -0.04 | -0.0291 | -0.0423 | 0.0308 | -0.058 | -0.0274 | -0.0048 | 0.0383 | 0.0036 | 0.0034 | 0.0148 | -0.0088 | 0.0199 | 0.0044 | 0.0114 | 0.0497 | 0.004
Cc1c2c(nn1C)CSCc1cc(n(C)n1)CSc1cc(c3ccccc3c1)OCCCc1c(C(=O)O)n(C)c3c-2c(Cl)ccc13 [AZD5991] + C[C@@H](Nc1cc(F)cc(F)c1)c1cc(C(=O)N(C)C)cc2c(=O)cc(N3CCOCC3)oc12 [AZD8186] (first compound max 1 µM, 7x7, partner max 3 µM) | 0.08 | 0.031 | -0.0067 | -0.0631 | -0.0517 | -0.0404 | 0.0096 | 0.0594 | -0.0252 | -0.0473 | -0.0068 | -0.0164 | -0.0086 | 0.038 | -0.0098 | -0.0192 | 0.0956 | -0.0268 | -0.0108 | 0.049
Cc1c2c(nn1C)CSCc1cc(n(C)n1)CSc1cc(c3ccccc3c1)OCCCc1c(C(=O)O)n(C)c3c-2c(Cl)ccc13 [AZD5991] + Cc1cc2ncnn2cc1Nc1ncc2c(n1)n(C1CCOCC1)c(=O)n2C [AZD7648] (first compound max 1 µM, 7x7, partner max 10 µM) | -0.0319 | -0.0095 | -0.0186 | -0.0863 | -0.0236 | -0.024 | 0.014 | -0.044 | -0.0249 | -0.0758 | -0.0026 | -0.0106 | -0.0067 | 0.0039 | 0.0101 | -0.038 | 0.0218 | -0.0487 | -0.0723 | -0.0774
Cc1c2c(nn1C)CSCc1cc(n(C)n1)CSc1cc(c3ccccc3c1)OCCCc1c(C(=O)O)n(C)c3c-2c(Cl)ccc13 [AZD5991] + Cn1cnc2c(F)c(Nc3ccc(Br)cc3Cl)c(C(=O)NOCCO)cc21 [Selumetinib] (first compound max 1 µM, 7x7, partner max 3 µM) | -0.0312 | 0.0333 | -0.026 | -0.06 | 0.0319 | -0.0069 | 0.0436 | -0.0609 | 0.0133 | -0.0186 | 0.0803 | -0.0127 | -0.0213 | 0.0044 | -0.0212 | -0.0402 | 0.098 | -0.0014 | -0.0036 | 0.0085
C[C@@H]1COCCN1c1cc(C2([S@](C)(=N)=O)CC2)nc(-c2ccnc3[nH]ccc23)n1 [AZD6738] + O=C(c1cc(Cc2n[nH]c(=O)c3ccccc23)ccc1F)N1CCN(C(=O)C2CC2)CC1 [Olaparib] (first compound max 10 µM, 7x7, partner max 10 µM) | -0.0521 | 0.0028 | -0.0686 | -0.0252 | -0.0284 | -0.0297 | -0.0405 | 0.023 | -0.0403 | -0.0133 | 0.0166 | 0.0123 | -0.0107 | -0.0475 | -0.0507 | 0.0176 | 0.0521 | 0.0052 | 0.0743 | 0.0046
Cc1cc2ncnn2cc1Nc1ncc2c(n1)n(C1CCOCC1)c(=O)n2C [AZD7648] + C=CCn1c(=O)c2cnc(Nc3ccc(N4CCN(C)CC4)cc3)nc2n1-c1cccc(C(C)(C)O)n1 [AZD1775] (first compound max 10 µM, partner max 1 µM) | -0.0547 | 0.0065 | -0.0585 | 0.0213 | -0.0046 | -0.0575 | -0.0241 | 0.0004 | 0.0207 | -0.0429 | -0.0334 | 0.0043 | -0.0497 | -0.0007 | -0.119 | -0.0218 | -0.0114 | 0.0177 | 0.0219 | -0.0024
